For `COc1ccsc1C1CCN(C[C@H](Cc2ccccc2)NC(=O)C2CCCCC2)CC1`, the melting point fell in the range of 92 to 94 °C.

As to `COc1cc(C=O)cc(OC)c1OCCO`, the melting point was 69 to 70 °C.

The compound `COc1ccc(C2CCN(C(=O)C(=O)NO)CC2)cc1C=C1CCCC1` registered a melting point of 127 to 128 °C.

`CS(=O)(=O)CC(=O)N[C@H]1CC[C@H](CCN2CCN(c3nccc4c3CCO4)CC2)CC1` showed a melting point of 260 °C.

`CN(C(=O)c1sc2cc(C(=O)O)ccc2c1S)c1ccc2sc3ccccc3c(=O)c2c1` yielded a melting point of 210 to 212 °C.

`CCCc1nc(C(C)(O)CC)c(C(=O)O)n1Cc1ccc(-c2ccccc2-c2nnn[nH]2)cc1` (centres undefined): the melting point lay in the range of 174 to 177 °C.

Regarding `CCc1cccc(N(C(=O)CCC(=O)O)c2cc(C(C)(C)C)c(O)c(C(C)(C)C)c2)c1`, the melting point lay within 150 to 152 °C.

Turning to `CCCCNc1cc(C(=O)OCC#N)cc(S(N)(=O)=O)c1Oc1ccccc1`, the melting point was in the range of 159 to 161 °C.

The compound `COc1cc(CNC(=O)c2nc3ccc(F)c(OCCc4ccc(-c5c(O)noc5C)cc4)c3c(=O)[nH]2)ccc1F` yielded a melting point of 240 to 242 °C.

For `CCOC(=O)C(CC)Cc1ccc(NC(=O)c2ccc(Cl)cc2)cc1` (centres undefined), the melting point was in the range of 119 to 120 °C.

`N#Cc1ccc(Nc2ncc(Cl)c(O)n2)cc1`: the melting point was > 300 °C.

`COc1cc2c(cc1Cl)C(O)Cc1ccc(F)cc1S2` (centres undefined) yielded a melting point of 143 to 145 °C.

`O=C(NNc1ccc(C=CC(c2cc(Cl)c(Cl)c(Cl)c2)C(F)(F)F)cc1)C1CC1` (centres undefined) came in with a melting point of 138 to 140 °C.

`COCOc1ccc(OCc2ccc(OCc3nc(-c4ccccc4)oc3C)cc2)c(CC#N)c1` displayed a melting point of 123 to 124 °C.

`C#CCCCc1c2c(nn1CCC)c(N)nc1ccccc12` showed a melting point of 144 to 145 °C.

Compound `c1ccc2nc(COc3ccc(NC4CCCC4)cc3)ccc2c1` came in with a melting point of 88 °C.

Turning to `O=C(O)c1ccc(-c2ccc3ncnc(Nc4ccc(OCc5cccc(F)c5)c(Cl)c4)c3c2)s1`, the melting point was in the range of 312 to 314 °C.

Regarding `COc1ccc(C(=O)CN(C)C(=O)/C=C/c2cccnc2)cc1OC`, the melting point lay in the range of 193 to 194 °C.

`CN(Cc1ccc(NC(=O)C2=Cc3cc(-c4ccc(N5CCOCC5)cc4)ccc3SCC2)cc1)C1CCOCC1` registered a melting point of 255 to 259 °C.

As for `Nc1cc(C(F)(F)F)nc(C(=O)O)c1Cl`, the melting point lay in the range of 131 to 133 °C.

Regarding `COC(=O)c1ccc(NCc2ccc(Cl)c(Cl)c2)cn1`, the melting point lay within 158 to 161 °C.

Compound `COCC(=O)N1CCc2cc(S(=O)(=O)N3CCN(c4cccc(Cl)c4)CC3)ccc21` had a melting point of 230 °C.

`O=C(O)CCc1ccc(C(=O)NCc2ccccn2)cc1` had a melting point of 83.8 °C.

`Oc1ncc(-c2ccccc2)s1` showed a melting point of 202 to 204 °C.

Regarding `COc1ccnc(CCc2nc3cc(I)cnc3[nH]2)c1`, the melting point is 207 to 208 °C.

Compound `CCOC(=O)NN(C)c1cc(C)c(-c2cccc([N+](=O)[O-])c2)nn1` showed a melting point of 142 to 144 °C.

Compound `O=C1CCc2c(F)cc(Cl)cc21` gave a melting point of 105 to 107 °C.

`Cc1csc2nc(C(=O)O)cn12` returned a melting point of 196 to 197 °C.

As to `CCC1COC(=O)C(=CC(=O)OC)N1` (centres undefined), the melting point is 68 to 70 °C.

In the case of `c1ccc(OCC2CO2)c(Cc2cccc3[nH]ccc23)c1` (centres undefined), the melting point stood at 78 °C.

Compound `O=C(CC1(O)CCC1)N[C@H]1CC[C@H](CCN2CCN(c3nccc4c3OCC4)CC2)CC1` came in with a melting point of 155 °C.

With `O=C1CN(c2ccccc2)C(=S)N1c1ccccc1`, the melting point was found to be 214 °C.

Regarding `CN1C(=O)CC[C@]2(C)c3ccc(-c4cccc5ccccc45)cc3CC[C@@H]12`, the melting point came to 159 °C.

In the case of `Cn1c(C(F)(F)F)cc(=O)n(-c2c(F)cc(Cl)c3oc(CO)cc23)c1=O`, the melting point was 139 to 141 °C.

The compound `NC(=O)c1cnn(C2OC(CO)C(O)C2O)n1` (centres undefined) yielded a melting point of 150 to 151 °C.

As for `CCOC(=O)c1c(NC23CC4CC(CC(C4)C2)C3)n[nH]c1C`, the melting point lay within 190 to 203 °C.

`CON(c1ccc([N+](=O)[O-])cc1Cl)S(=O)(=O)c1ccc(Cl)c(Cl)c1` came in with a melting point of 132 to 133 °C.

Take `Oc1ccc(N=C(C=COc2ccccc2)Oc2ccccc2)cc1`: the melting point is 110 °C.

With `FC1=COC(COCc2ccccc2)C(COCc2ccccc2)O1` (centres undefined), the melting point lay within 61.5 to 63 °C.

Regarding `COc1cc2c(cc1O)C(Cc1cc(Br)c(OC)cc1[N+](=O)[O-])N(C)CC2` (centres undefined), the melting point worked out at 146 °C.

The compound `CCCn1c(OCC2CC2(Cl)Cl)nc2sccc2c1=O` (centres undefined) showed a melting point of 64 to 66 °C.

Turning to `Clc1cnc2c(Cl)cccc2n1`, the melting point is 137 to 138 °C.

Turning to `CS(=O)(=O)c1ccc(-c2oc(CCC(N)=O)nc2-c2ccc(F)cc2)cc1`, the melting point is 193 to 195 °C.

Take `O=C(c1ccc(Cl)cc1)C1(c2ccccc2Cl)CO1` (centres undefined): the melting point is 65 to 66 °C.

For the compound `OCc1cn(-c2ccc(Cl)c(C(F)(F)F)c2)cn1`, the melting point lay in the range of 148 to 153 °C.

As to `CN(C)C1(c2ccccc2)CCC2(CC1)NCCc1c2[nH]c2ccc(-c3ccncc3)cc12` (centres undefined), the melting point is 190 to 197 °C.

`CCc1cccc(NC(=O)c2cnn(C)c2N)c1` returned a melting point of 168 to 170 °C.

Take `Cc1ccc(S(=O)(=O)CCCCCC(C)(C(=O)OC(C)(C)C)C(=O)OC(C)(C)C)cc1`: the melting point fell in the range of 36.5 to 38.5 °C.

Compound `COc1cc(Nc2nc3cccc(-c4ccc(S(N)(=O)=O)cc4)c3o2)cc(OC)c1OC` registered a melting point of 247 to 252 °C.

As to `CC1(C)Oc2ccc(C#N)cc2C(CC(=O)N2CCCCC2)C1O` (centres undefined), the melting point fell in the range of 160 to 161 °C.

Turning to `CNC(=O)c1cnn2c(C(=O)N3CCNCC3)c(Cc3cccc(F)c3C)c(-c3ccccc3)c2c1`, the melting point fell in the range of 208 to 210 °C.

Compound `C#CCOc1cc(-c2ncc(C(F)(F)F)cc2Cl)c(F)cc1Cl` came in with a melting point of 97 to 98 °C.

With `Cc1ccc(-c2nnc3cc(-c4ccccc4)c(OCc4ncn(C)n4)nn23)s1`, the melting point fell in the range of 209 to 210 °C.

`Nc1cccc2c1CCNC2` came in with a melting point of 153 to 154 °C.

Compound `CNc1nc(S(=O)(=O)Nc2c(F)cccc2F)nn1-c1ccccc1` displayed a melting point of 180 to 181 °C.

In turn, `CCS(=O)c1cc(C(=O)O)c(OC)cc1N` (centres undefined) returned a melting point of 158 °C.

`C#CCn1c(-c2ccccc2)nc(CC)c(CC(N)=O)c1=O` showed a melting point of 196 to 198 °C.

As to `O=[N+]([O-])c1ccc(Oc2ccc(C(F)(F)F)cc2Cl)cc1Oc1ccc(C(F)(F)F)cc1Cl`, the melting point was in the range of 111 to 113 °C.

The compound `Cc1cccc(NC(=O)NC2N=C(C3CCCC3)c3ccccc3N(Cc3ncccc3C)C2=O)c1` (racemic) had a melting point of 198 to 199 °C.

`Clc1nc2ccccc2c2[nH]c3ccccc3c12` displayed a melting point of 249 to 250 °C.

`Cc1oc(-c2ccccc2)nc1COc1cccc(CSc2ccc(CC(=O)O)cc2Cl)c1` showed a melting point of 150 to 151 °C.

`CSc1nc2ccc(CCc3nc4cc(C)ccn4c3C)cc2o1` displayed a melting point of 106 to 107 °C.

On to `COc1ccc(-c2nc3cnncc3[nH]2)c(N(C)C)c1`, for which the melting point stood at 226 °C.

`CCCNC1=NS(=O)(=O)c2sc(C)cc2N1` showed a melting point of 263 to 264 °C.

As for `CCOC(=O)c1ccc(C=C(C)c2cc3c(s2)C(C)(C)CCC3(C)C)cc1`, the melting point was 118 to 120 °C.

For `CN1CCN(CCCNc2ccc(Cl)cc2N)CC1`, the melting point fell in the range of 88 to 90 °C.

`O=C(Nc1ccc(Oc2ccccc2)cc1)N1CCN(c2ncnc3ccc(Br)cc23)CC1` registered a melting point of 169 to 170 °C.

In turn, `C=CCCc1ccc(C#N)c(O)n1` yielded a melting point of 122 to 125 °C.

`O=C1COc2ccc(NC(=O)C(=O)N3CCC(Cc4ccccc4)CC3)cc2N1` returned a melting point of 186 to 187 °C.

For the compound `O=C(COc1ccccc1Cl)NCCO[N+](=O)[O-]`, the melting point was 57 to 58 °C.

Compound `COC(=O)c1ccc(-n2c(C)nc3cc(C#N)ccc32)cc1` had a melting point of 179 to 181 °C.

`Cc1nc2c(s1)-c1nc(Nc3ccc(Cl)nc3)ncc1CC2` came in with a melting point of 252 to 253 °C.

`CCCN1CCO[C@@H]2c3cc(C(=O)N(C)C)ccc3CC[C@H]21` (relative stereo) showed a melting point of 85 to 87 °C.

Compound `CC(C)(C)NCC(O)COc1ccccc1-c1csnn1` (centres undefined) displayed a melting point of 99 to 100 °C.

As to `CC(Oc1cccc(Oc2c(Cl)cc(C(F)(F)F)cc2Cl)c1)(C(=O)Cl)[N+](=O)[O-]` (centres undefined), the melting point worked out at 92 °C.

In turn, `O=C(NCCO[N+](=O)[O-])c1ccco1` came in with a melting point of 88 to 89 °C.

The compound `CC(C)(C)OC(=O)N1CCC(c2nc(-c3ccc(-c4ccccc4)cc3)c[nH]2)CC1` returned a melting point of 120 to 122 °C.

In turn, `CC1=C(C)[C@]23OC[C@](C)(CCC2=C(C)C1=O)O3` displayed a melting point of 99 to 100 °C.

As to `NS(=O)(=O)c1ccc(-c2cn(-c3nc(-c4ccc(Cl)c(Cl)c4)cc(C(F)(F)F)n3)cn2)cc1`, the melting point amounted to 334 °C.

`O=C1CN(C(=O)Cl)C(c2ccccc2)c2cc(Cl)ccc2N1` (centres undefined): the melting point was in the range of 181 to 184 °C.

With `O=C1NC(=O)C(Cc2ccc(OCCNc3nc4ccccc4o3)cc2)S1` (centres undefined), the melting point lay within 202 to 203 °C.

`CN1CCN(c2cc(Cl)cc3c2c(=O)n(CCCc2ccccc2)c(=O)n3Cc2ccccc2)CC1`: the melting point lay in the range of 55 to 63 °C.

In turn, `Cn1nccc1OCc1c(S(C)(=O)=O)ccc(C(=O)C2C(=O)CC(C)(C)CC2=O)c1Cl` displayed a melting point of 82 °C.

The compound `COC(=O)c1c(O)cc(C(F)(F)F)nc1C(F)(F)F` gave a melting point of 62 to 75 °C.

Take `O=C(O)Cc1c(C(=O)c2ccc(Cl)cc2)[nH]c2cc(C(F)(F)F)ccc12`: the melting point was in the range of 155 to 160 °C.

In the case of `COc1nc(C)nc(NC(=O)NS(=O)(=O)c2ccccc2C(=O)O)n1`, the melting point was in the range of 157 to 158 °C.

As to `COc1cc(OCc2ccccn2)ccc1/C=C/c1cc(/C=C/c2c[nH]c3ccccc23)n[nH]1`, the melting point was in the range of 112 to 116 °C.

Take `CC(=O)N[C@H]1CC[C@H](Nc2nccc(-n3nnc4ccccc43)n2)CC1`: the melting point was 287 to 288 °C.

With `C=CCOc1ccccc1-c1ccc(C(N)=O)c(=O)[nH]1`, the melting point lay in the range of 210 to 212 °C.

As a reminder, the melting point is the temperature of the solid-liquid transition.

(Values after a melting point compilation (Tetko et al.; mined from patent text by program, amines drawn as free bases though some values may be those of a salt).)
